Source: article PMC12409580, “Modulating Receptor Activity, Immune Response, and Kinetic Solubility: The Impact of Linker Chemistry in Conjugated NOD2/TLR4 Agonists” (ACS Omega, 2025)
≈ marks a conversion by molar mass, not a printed value.

What was measured:
[1] = biological target: TLR4 (Homo sapiens, UniProt O00206+Q9Y6Y9); assay: TLR4 NF-κB SEAP reporter assay in HEK-Blue hTLR4 cells; settings: for TLR4 activation at 10 μM, fold increase / TLR4 activation at 100 μM, fold increase: 18 h, NF-κB transcriptional activity (SEAP) relative to 0.1% DMSO; for maximum TLR4 activation: HEK-Blue hTLR4, 21 at 10 μM; for concentration at which compound activated TLR4: dose-response 0.5–10 μM (17–21) or 1–100 μM (27–31)
[2] = Kinetic solubility in PBS (HPLC solubility assay); settings: aqueous buffer, kinetic from dmso stock
[3] = biological target: NOD2 (Homo sapiens, UniProt Q9HC29); assay: NOD2 NF-κB SEAP reporter assay in HEK-Blue hNOD2 cells; settings: for NOD2 activation at 10 μM, fold increase: 18 h, NF-κB transcriptional activity (SEAP) relative to 0.1% DMSO; for NOD2 agonist activity: compared with NOD2 agonist 3 and MDP (4 μM)
[4] = PBS, Average solubility, Tables S1–S3, average of two samples
[5] = PBS, Solubility sample 1, Tables S1–S3, replicate 1
[6] = PBS, Solubility sample 2, Tables S1–S3, replicate 2
[7] = PBS, solubility in PBS, kinetic solubility, HPLC solubility assay
[8] = Average solubility, Tables S1–S3, average of two samples
[9] = Solubility sample 1, Tables S1–S3, replicate 1
[10] = Solubility sample 2, Tables S1–S3, replicate 2
[11] = solubility in PBS, kinetic solubility, HPLC solubility assay

Chain of TLR4 (O00206 24-839): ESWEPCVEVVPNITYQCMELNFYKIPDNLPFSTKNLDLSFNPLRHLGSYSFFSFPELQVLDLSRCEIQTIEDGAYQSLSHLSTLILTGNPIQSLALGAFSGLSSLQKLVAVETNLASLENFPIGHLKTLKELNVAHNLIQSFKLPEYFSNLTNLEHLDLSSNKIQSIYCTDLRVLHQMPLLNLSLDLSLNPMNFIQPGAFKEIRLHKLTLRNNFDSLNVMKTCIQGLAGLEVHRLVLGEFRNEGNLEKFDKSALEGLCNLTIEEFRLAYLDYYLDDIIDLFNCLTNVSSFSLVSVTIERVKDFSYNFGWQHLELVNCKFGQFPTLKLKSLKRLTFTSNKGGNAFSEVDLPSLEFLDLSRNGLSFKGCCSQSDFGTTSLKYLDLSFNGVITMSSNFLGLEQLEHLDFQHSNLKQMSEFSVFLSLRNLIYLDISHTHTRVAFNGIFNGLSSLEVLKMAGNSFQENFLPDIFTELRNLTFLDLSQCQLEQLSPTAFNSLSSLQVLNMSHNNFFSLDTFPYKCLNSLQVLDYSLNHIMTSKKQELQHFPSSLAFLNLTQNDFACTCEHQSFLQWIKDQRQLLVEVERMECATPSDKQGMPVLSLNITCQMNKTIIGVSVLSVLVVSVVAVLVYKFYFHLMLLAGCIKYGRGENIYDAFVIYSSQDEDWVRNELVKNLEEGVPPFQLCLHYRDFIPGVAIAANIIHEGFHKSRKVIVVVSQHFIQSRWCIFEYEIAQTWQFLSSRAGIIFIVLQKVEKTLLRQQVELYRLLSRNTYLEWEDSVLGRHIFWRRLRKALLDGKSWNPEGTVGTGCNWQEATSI
Chain of TLR4 (Q9Y6Y9 17-160 limits assumed): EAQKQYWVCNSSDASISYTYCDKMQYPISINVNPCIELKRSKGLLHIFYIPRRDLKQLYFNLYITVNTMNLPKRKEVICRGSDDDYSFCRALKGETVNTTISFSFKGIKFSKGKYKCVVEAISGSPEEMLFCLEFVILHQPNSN
Chain of NOD2 (Q9HC29 whole entry): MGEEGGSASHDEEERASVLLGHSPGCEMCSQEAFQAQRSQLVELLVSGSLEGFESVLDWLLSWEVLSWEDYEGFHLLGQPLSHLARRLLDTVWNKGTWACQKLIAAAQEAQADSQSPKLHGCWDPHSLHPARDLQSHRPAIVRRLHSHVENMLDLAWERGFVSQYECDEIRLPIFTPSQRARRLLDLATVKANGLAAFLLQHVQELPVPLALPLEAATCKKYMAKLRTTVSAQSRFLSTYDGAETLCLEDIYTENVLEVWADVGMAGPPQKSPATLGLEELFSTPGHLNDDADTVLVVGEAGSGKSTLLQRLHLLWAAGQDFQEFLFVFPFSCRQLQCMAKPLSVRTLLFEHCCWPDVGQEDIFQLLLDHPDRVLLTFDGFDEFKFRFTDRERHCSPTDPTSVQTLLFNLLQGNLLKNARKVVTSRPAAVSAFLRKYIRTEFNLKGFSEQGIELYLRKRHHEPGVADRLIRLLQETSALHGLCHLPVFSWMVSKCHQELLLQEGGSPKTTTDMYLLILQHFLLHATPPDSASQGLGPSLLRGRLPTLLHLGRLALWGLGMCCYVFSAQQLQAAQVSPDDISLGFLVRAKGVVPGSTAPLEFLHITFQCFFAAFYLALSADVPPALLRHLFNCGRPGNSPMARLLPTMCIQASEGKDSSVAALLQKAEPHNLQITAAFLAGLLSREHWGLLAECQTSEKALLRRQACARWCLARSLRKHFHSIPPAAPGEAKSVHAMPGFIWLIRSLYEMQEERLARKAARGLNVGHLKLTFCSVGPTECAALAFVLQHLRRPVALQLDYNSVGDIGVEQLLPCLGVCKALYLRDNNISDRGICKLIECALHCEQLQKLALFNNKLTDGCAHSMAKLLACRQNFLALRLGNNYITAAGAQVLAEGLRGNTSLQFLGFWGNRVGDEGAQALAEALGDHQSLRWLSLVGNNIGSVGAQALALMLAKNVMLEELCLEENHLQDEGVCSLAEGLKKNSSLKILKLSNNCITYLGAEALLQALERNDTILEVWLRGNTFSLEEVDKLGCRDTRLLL

maximum TLR4 activation [1]	solubility [2, 4]	SMILES	TLR4 activation at 10 μM, fold increase ([1]; 10 μM)	solubility [2, 5]	solubility [2, 6]	solubility [2, 7]	TLR4 activation at 100 μM, fold increase [1]	solubility [2, 8]	solubility [2, 9]	solubility [2, 10]	solubility [2, 11]	NOD2 activation at 10 μM, fold increase [3]	TLR4 agonism ([1]; 10 μM)	concentration at which compound activated TLR4 [1]	NOD2 agonist activity [3]
7.23 fold	238 µM (≈ 152 µg/mL)	O=C(O)Cc1ccc(C(C(=O)NC2CCCC2)N(C(=O)c2cc(-c3ccccc3)n(-c3ccccc3)n2)c2ccc3c(c2)CCC3)cc1 (stereo not shown) [Compound 4, reference compound]	7.23 fold increase	249 µM (≈ 159 µg/mL)	226 µM (≈ 145 µg/mL)	238 µM (≈ 152 µg/mL)									
		CCOC(=O)[C@H](CCC(=O)NCCOCCOCCNC(=O)CSc1nc2c([nH]c3ccccc32)c(=O)n1-c1ccccc1)NC(=O)[C@H](NC(=O)CNC(=O)/C=C/c1ccc(O)c(OC)c1)C(C)C [Compound 29, Ethyl (S)-16-((R)-2-(2-((E)-3-(4-Hydroxy-3-methoxyphenyl)acrylamido)acetamido)-3-methylbutanamido)-2,13-dioxo-1-((4-oxo-3-phenyl-4,5-dihydro-3H-pyrimido[5,4-b]indol-2-yl)thio)-6,9-dioxa-3,12-diazaheptadecan-17-oate]	1.00 fold increase				1.43 fold increase	238 µM (≈ 231 µg/mL)	232 µM (≈ 225 µg/mL)	244 µM (≈ 237 µg/mL)	238 µM (≈ 231 µg/mL)	1.60 fold increase			
		CCOC(=O)[C@H](CCC(=O)NCCCCCCNC(=O)Cc1ccc(C(C(=O)NC2CCCC2)N(C(=O)c2cc(-c3ccccc3)n(-c3ccccc3)n2)c2ccc3c(c2)CCC3)cc1)NC(=O)[C@@H](NC(=O)CNC(=O)/C=C/c1ccc(O)c(OC)c1)C(C)C (stereo partly drawn) [Compound 18, Ethyl N ^5-(6-(2-(4-(2-(Cyclopentylamino)-1-(N-(2,3-dihydro-1H-inden-5-yl)-1,5-diphenyl-1H-pyrazole-3-carboxamido)-2-oxoethyl)phenyl)acetamido)hexyl)-N ^2-((E)-3-(4-hydroxy-3-methoxyphenyl)acryloyl)glycyl-L-valyl-D-glutaminate]	1.46 fold increase	0.85 µM (≈ 1.04 µg/mL)	1.17 µM (≈ 1.43 µg/mL)	1.01 µM (≈ 1.24 µg/mL)						2.43 fold increase	weak TLR4 agonism		
		CCOC(=O)[C@H](CCC(=O)NCCCCCCNC(=O)CSc1nc2c([nH]c3ccccc32)c(=O)n1-c1ccccc1)NC(=O)[C@H](NC(=O)CNC(=O)/C=C/c1ccc(O)c(OC)c1)C(C)C [Compound 28, Ethyl N ^2-((E)-3-(4-Hydroxy-3-methoxyphenyl)acryloyl)glycyl-D-valyl-N ^5-(6-(2-((4-oxo-3-phenyl-4,5-dihydro-3H-pyrimido[5,4-b]indol-2-yl)thio)acetamido)hexyl)-L-glutaminate]	1.06 fold increase				1.72 fold increase	80 µM (≈ 75.1 µg/mL)	115 µM (≈ 108 µg/mL)	80.7 µM (≈ 75.8 µg/mL)	80 µM (≈ 75.1 µg/mL)	1.65 fold increase			
		CCOC(=O)[C@H](CCC(=O)NCCNC(=O)CSc1nc2c([nH]c3ccccc32)c(=O)n1-c1ccccc1)NC(=O)[C@H](NC(=O)CNC(=O)/C=C/c1ccc(O)c(OC)c1)C(C)C [Compound 27, Ethyl N ^2-((E)-3-(4-Hydroxy-3-methoxyphenyl)acryloyl)glycyl-D-valyl-N ^5-(2-(2-((4-oxo-3-phenyl-4,5-dihydro-3H-pyrimido[5,4-b]indol-2-yl)thio)acetamido)ethyl)-L-glutaminate]	1.06 fold increase				2.60 fold increase	310 µM (≈ 274 µg/mL)	322 µM (≈ 284 µg/mL)	298 µM (≈ 264 µg/mL)	310 µM (≈ 274 µg/mL)	2.17 fold increase			
		CCOC(=O)[C@H](CCC(=O)N1CCC(CN2CCN(C(=O)CSc3nc4c([nH]c5ccccc54)c(=O)n3-c3ccccc3)CC2)CC1)NC(=O)[C@H](NC(=O)CNC(=O)/C=C/c1ccc(O)c(OC)c1)C(C)C [Compound 31, Ethyl (S)-2-((R)-2-(2-((E)-3-(4-Hydroxy-3-methoxyphenyl)acrylamido)acetamido)-3-methylbutanamido)-5-oxo-5-(4-((4-(2-((4-oxo-3-phenyl-4,5-dihydro-3H-pyrimido[5,4-b]indol-2-yl)thio)acetyl)piperazin-1-yl)methyl)piperidin-1-yl)pentanoate]	1.05 fold increase				2.26 fold increase		7.22 µM (≈ 7.26 µg/mL)	6.15 µM (≈ 6.19 µg/mL)	6.68 µM (≈ 6.72 µg/mL)	3.33 fold increase			
		CCOC(=O)[C@@H](CCC(=O)NCCCOCCOCCOCCCNC(=O)CSc1nc2c([nH]c3ccccc32)c(=O)n1-c1ccccc1)NC(=O)[C@@H](NC(=O)CNC(=O)/C=C/c1ccc(O)c(OC)c1)C(C)C [Compound 30, Ethyl (R)-21-((S)-2-(2-((E)-3-(4-Hydroxy-3-methoxyphenyl)acrylamido)acetamido)-3-methylbutanamido)-2,18-dioxo-1-((4-oxo-3-phenyl-4,5-dihydro-3H-pyrimido[5,4-b]indol-2-yl)thio)-7,10,13-trioxa-3,17-diazadocosan-22-oate]	1.05 fold increase				1.36 fold increase	122 µM (≈ 128 µg/mL)	124 µM (≈ 129 µg/mL)	121 µM (≈ 126 µg/mL)	122 µM (≈ 128 µg/mL)	1.55 fold increase			
		CCOC(=O)[C@H](CCC(=O)NCCNC(=O)Cc1ccc(C(C(=O)NC2CCCC2)N(C(=O)c2cc(-c3ccccc3)n(-c3ccccc3)n2)c2ccc3c(c2)CCC3)cc1)NC(=O)[C@@H](NC(=O)CNC(=O)/C=C/c1ccc(O)c(OC)c1)C(C)C (stereo partly drawn) [Compound 17, Ethyl N ^5-(2-(2-(4-(2-(Cyclopentylamino)-1-(N-(2,3-dihydro-1H-inden-5-yl)-1,5-diphenyl-1H-pyrazole-3-carboxamido)-2-oxoethyl)phenyl)acetamido)ethyl)-N ^2-((E)-3-(4-hydroxy-3-methoxyphenyl)acryloyl)glycyl-L-valyl-D-glutaminate]	5.10 fold increase	0.68 µM (≈ 0.796 µg/mL)	0.83 µM (≈ 0.971 µg/mL)	0.76 µM (≈ 0.889 µg/mL)						3.66 fold increase		1.0 µM	comparable efficiency to MDP
		CCOC(=O)[C@H](CCC(=O)NCCOCCOCCNC(=O)Cc1ccc(C(C(=O)NC2CCCC2)N(C(=O)c2cc(-c3ccccc3)n(-c3ccccc3)n2)c2ccc3c(c2)CCC3)cc1)NC(=O)[C@H](NC(=O)CNC(=O)/C=C/c1ccc(O)c(OC)c1)C(C)C (stereo partly drawn) [Compound 19, Ethyl (16S)-1-(4-(2-(Cyclopentylamino)-1-(N-(2,3-dihydro-1H-inden-5-yl)-1,5-diphenyl-1H-pyrazole-3-carboxamido)-2-oxoethyl)phenyl)-16-((R)-2-(2-((E)-3-(4-hydroxy-3-methoxyphenyl)acrylamido)acetamido)-3-methylbutanamido)-2,13-dioxo-6,9-dioxa-3,12-diazaheptadecan-17-oate]	2.78 fold increase	2.59 µM (≈ 3.26 µg/mL)	1.68 µM (≈ 2.11 µg/mL)	2.14 µM (≈ 2.69 µg/mL)						3.06 fold increase		5 µM	
		CCOC(=O)[C@@H](CCC(=O)NCCCOCCOCCOCCCNC(=O)Cc1ccc(C(C(=O)NC2CCCC2)N(C(=O)c2cc(-c3ccccc3)n(-c3ccccc3)n2)c2ccc3c(c2)CCC3)cc1)NC(=O)[C@@H](NC(=O)CNC(=O)/C=C/c1ccc(O)c(OC)c1)C(C)C (stereo partly drawn) [Compound 20, Ethyl (21R)-1-(4-(2-(Cyclopentylamino)-1-(N-(2,3-dihydro-1H-inden-5-yl)-1,5-diphenyl-1H-pyrazole-3-carboxamido)-2-oxoethyl)phenyl)-21-((S)-2-(2-((E)-3-(4-hydroxy-3-methoxyphenyl)acrylamido)acetamido)-3-methylbutanamido)-2,18-dioxo-7,10,13-trioxa-3,17-diazadocosan-22-oate]	2.68 fold increase	1.61 µM (≈ 2.14 µg/mL)	1.38 µM (≈ 1.84 µg/mL)	1.5 µM (≈ 2 µg/mL)						3.53 fold increase		5 µM	comparable efficiency to MDP
3.10 fold	254 µM (≈ 89.3 µg/mL)	O=C(O)CSc1nc2c([nH]c3ccccc32)c(=O)n1-c1ccccc1 [Compound 6, reference compound]	1.22 fold increase	270 µM (≈ 94.8 µg/mL)	238 µM (≈ 83.7 µg/mL)	254 µM (≈ 89.3 µg/mL)	3.10 fold increase								
